Key:
[1] = test system: mature DCs; assay: mixed leukocyte reaction (MLR) assay, T cell stimulatory capacity of mature DCs; assay type: cell-based; details: see FIGS. 3 and 4
Description: The T cell stimulatory capacity of mature DCs can be tested in vitro by means of the so-called “mixed leukocyte reaction” (MLR) assay. […] This functional test therefore reflects the phenotypic effects of the PI treatment—namely the blockade of full maturation of the DCs—very well.

[2] = test system: murine (DC:T) cell co-cultures; assay: cytokine and chemokine production in murine DC/T cell co-cultures; assay type: cell-based; details: 72 hours, different concentrations; FIG. 5
Method: The production of INFy and MCP-1 was determined from cell culture top fractions of murine (DC:T) cell co-cultures. For this purpose, DCs were incubated with allogeneic T cells, in the presence of different concentrations of Velcade®, for 72 hours. […] The control (mock) remained untreated.

[3] = test system: murine DCs generated ex vivo
Method: In order to test the effect of PIs also in vivo, Velcade® was applied to mice in vivo, then bone marrow was isolated and the typical bone marrow DCs were generated from this.
C57B1/6 mice were injected with 0.75 mg/kg Velcade® i.v. three times. The injection took place within five days, with an interval of one day, in each instance. An hour after the last injection, removal of the bone marrow from femur and tibia took place to generate the murine DCs. On Day 8 of cultivation, the cells were matured with LPS. On the subsequent day, the expression of the surface molecules was investigated by means of FACS analysis.

[4] = test system: human DC/T cell co-cultures; assay: cytokine production in human DC/T cell co-cultures (CBA technology); assay type: cell-based
Method: During DC-mediated T cell stimulation, the production of cytokines (among them IFN, IL-2, IL-6, TNF) takes place, which can be detected in the culture top fraction. […] Immature human […] were incubated with Velcade®, matured for 48 hours, and subsequently cultivated together with allogeneic human T cells for another 72 hours. Subsequently, cell culture top fractions were taken and the release of pro-inflammatory cytokines was analyzed by means of CBA technology. […] The control (mock) remained untreated.

[5] = test system: murine DCs / allogeneic murine T cells; assay: DC-mediated T cell proliferation, allogeneic murine T cells with TNF-matured murine DCs; assay type: cell-based; details: 72 hours, three different concentrations; FIG. 3
Method: Allogeneic murine T cells were incubated with TNF-matured murine DCs for 72 hours, in the presence of three different concentrations of Velcade®.

[6] = test system: human DCs; details: two concentrations added Day 5, matured two days with maturation cocktail; FIG. 2
Method: Immature human DCs were mixed with two different concentrations of Velcade® on Day 5, and subsequently matured for another two days using the maturation cocktail. Subsequently, the expression of the surface molecules that are typical for the maturation of human DCs was analyzed. […] The control (mock) remained untreated.

[7] = test system: human DCs; assay: DC-mediated T cell stimulation by MLR assay, human DCs; assay type: cell-based; details: DCs incubated during maturation; FIG. 4
Method: The T cell stimulatory capacity of mature DCs can be tested in vitro by means of the so-called “mixed leukocyte reaction” (MLR) assay. […] Human DCs were incubated with Velcade® during maturation and subsequently, the DC-mediated T cell stimulation was investigated by means of MLR assay.

[8] = test system: murine DCs; assay: maturation of murine dendritic cells, surface molecules by FACS analysis; assay type: cell-based; details: different concentrations, Day 8 to Day 10, matured last 16 hours with LPS; FIG. 1
Method: Murine DCs were incubated with different concentrations of the proteasome inhibitor Velcade® from Day 8 to Day 10, and were matured during the last 16 hours, in the presence of LPS. In order to determine the phenotypic DC maturation, in other words the increase in the expression level of specific cell surface molecules, the cells were subsequently characterized using monoclonal antibodies and FACS analysis. […] However, only completely matured DCs are able to induce potent immune responses. The control (mock) remained untreated.

[9] = 0.75 mg/kg i.v. three times, FIG. 7b

## CC(C)C[C@H](NC(=O)[C@H](Cc1ccccc1)NC(=O)c1cnccn1)B(O)O [Velcade®]
[1]
  DC-mediated T cell stimulation: able to block DC-mediated T cell stimulation
[2]
  expression of INFy and MCP-1 in cell culture top fractions: clearly reduced expression
[3]; 0.75 mg/kg i.v. three times, DCs matured with LPS on Day 8, FIG. 7a
  surface expression of CD25, CD40, CD80 and CD86: reduction in the surface expression
[3]; [9]
  expression of MHC Class II molecules: also reduced
  percentage of MHC II highly expressing cells:MHC II interm. expressing cells: shifted in favor of the MCH II interm. expressing cells
[3]; applied in vivo to mice, TNF-stimulated and LPS-stimulated DCs, FIG. 7
  population of the mature DCs (CD40, CD25, CD83 highly expressing): reduces the population of the mature DCs
[4]; culture top fraction, summary of FIGS. 5 and 6 (murine and human)
  cytokine production (IFN, IL-2, IL-6, TNF) during DC-mediated T cell stimulation: able to block this cytokine production, as a function of concentration
[4]; matured 48 hours, co-culture with allogeneic T cells 72 hours, FIG. 6
  secretion of IL-2, IL-6, INFy and TNF: clearly reduced secretion
[5]
  DC-mediated T cell proliferation: reduces the DC-mediated T cell proliferation in a manner that is dependent on dose
[6]
  expression of CD80, CCR7, CD25, MHC I and CD83: clear reduction
[7]
  DC-mediated T cell stimulation (stimulatory capacity of DCs): clear reduction in their stimulatory capacity
[8]
  surface expression of CD25, CD40, CD80, CD86 and CD83: very clearly reduces

Source: patent publication US20120269797A1, “METHOD FOR INHIBITING THE MATURATION OF DENDRITIC CELLS” (priority 2009, published 2012)
